IC50 data for 20 compounds are collected here from BindingDB's records for doi:10.1111/cbdd.12443 (Northeastern University, 2015).

Structures can show the parent of a compound that is named as a salt.

This test concerns the target T1, Phosphodiesterase (Trypanosoma brucei, UniProt Q8WQX9).
T1 sequence (Q8WQX9 whole entry): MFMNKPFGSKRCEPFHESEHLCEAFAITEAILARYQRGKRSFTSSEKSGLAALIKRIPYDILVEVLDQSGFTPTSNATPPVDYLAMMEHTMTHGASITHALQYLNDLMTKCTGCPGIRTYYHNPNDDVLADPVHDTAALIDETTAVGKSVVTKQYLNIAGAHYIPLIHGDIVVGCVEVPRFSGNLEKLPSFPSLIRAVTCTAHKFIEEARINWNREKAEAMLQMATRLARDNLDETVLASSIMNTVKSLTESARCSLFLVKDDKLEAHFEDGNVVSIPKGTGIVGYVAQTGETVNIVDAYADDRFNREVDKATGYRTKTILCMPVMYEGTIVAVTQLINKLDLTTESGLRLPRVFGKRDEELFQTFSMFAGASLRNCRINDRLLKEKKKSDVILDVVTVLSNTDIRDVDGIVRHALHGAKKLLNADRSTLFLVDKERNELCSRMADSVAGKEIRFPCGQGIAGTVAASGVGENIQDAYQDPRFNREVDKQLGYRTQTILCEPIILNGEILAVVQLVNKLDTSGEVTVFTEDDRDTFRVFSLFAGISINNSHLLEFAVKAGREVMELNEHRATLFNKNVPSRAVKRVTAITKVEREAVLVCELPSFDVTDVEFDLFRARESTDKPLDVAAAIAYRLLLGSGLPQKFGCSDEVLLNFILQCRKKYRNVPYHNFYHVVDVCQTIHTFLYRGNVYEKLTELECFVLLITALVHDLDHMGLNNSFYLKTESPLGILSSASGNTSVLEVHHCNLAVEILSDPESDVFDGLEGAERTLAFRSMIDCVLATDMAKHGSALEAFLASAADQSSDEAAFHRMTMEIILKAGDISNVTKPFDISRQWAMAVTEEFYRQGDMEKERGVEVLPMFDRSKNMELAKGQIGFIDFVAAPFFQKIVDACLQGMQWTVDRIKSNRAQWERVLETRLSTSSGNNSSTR
Nature of the test: TbrPDEB1 Enzyme Assay. To be noted: pH 7.4. As to the method: In short, recombinant TbrPDEB1 and TbrPDEB2 were assayed in 10 mM Tris pH 7.4, bovine serum albumin (0.2 mg/mL), 10 mM MgCl2, 25µM cAMP (Enzo Lifesciences) and an excess of 5 endonucleotidase (>1000U) at 37 °C. Excess amount of 5 endonucleotidase was determined by titration (Enzo Lifesciences). Reactions were terminated by the addition of BioMol green (Enzo Lifesciences) which was also used to detect changes in the level of phosphate. This was measured by absorbance at 620 nm using a Tecan Sunrise plate reader. […] Inhibitors were preincubated with the assay mixture for 5 min prior to the addition of substrate. Inhibition was determined by the change in the initial velocity relative to a vehicle only control for both compound screening and for the determination of IC50 values. Initial velocity was determined by linear regression and IC50 values were calculated

The IC50 is the concentration that inhibits the measured activity by half. As to `Cc1cccc(Nc2c(C(N)=O)cnc3c(C)cc(-c4ccc5cnn(C)c5c4)cc23)c1` [8-Methyl-6-(1-methyl-1H-indazol-6-yl)-4-(m-tolylamino)quinoline-3-carboxamide (24e)], the IC50 turned out to be 3.5 µM.

For `COc1cccc(Nc2c(C(N)=O)cnc3c(C)cc(-c4cccc(N5CCOCC5)c4)cc23)c1` [4-((3-Methoxyphenyl)amino)-8-methyl-6-(3-morpholinophenyl)quinoline-3-carboxamide (17s)], the IC50 is 12 µM.

`COC(=O)c1cccc(Nc2cc(C)c3ncc(C(N)=O)c(Nc4cccc(OC)c4)c3c2)c1` [Methyl 3-(3-carbamoyl-4-(3-methoxyphenylamino)-8-methylquinolin-6-ylamino)benzoate (13)] yielded an IC50 of 16 µM.

As to `COc1cccc(Nc2c(C(N)=O)cnc3c(C)cc(-c4cccc(-c5nnc(C)s5)c4)cc23)c1` [4-((3-Methoxyphenyl)amino)-8-methyl-6-(3-(5-methyl-1,3,4-thiadiazol-2-yl)phenyl) quinoline-3-carboxamide, formic acid salt (17o)], the IC50 is 6 µM.

`COc1cccc(Nc2c(C(N)=O)cnc3c(C)cc(S(=O)(=O)c4cccc(C(=O)N(C)C)c4)cc23)c1` [GSK-256066] had an IC50 of 24 µM.

The compound `COc1cccc(Nc2c(C(N)=O)cnc3c(C)cc(S(=O)(=O)c4cccc(C(=O)O)c4)cc23)c1` [3-(3-carbamoyl-4-(3-methoxyphenylamino)-8-methylquinolin-6-ylsulfonyl)benzoic acid (11)] returned an IC50 of 2.9 µM.

In turn, `CCc1cc(-c2ccc3cnn(C)c3c2)cc2c(Nc3cccc(OC)c3)c(C(N)=O)cnc12` [8-Ethyl-4-((3-methoxyphenyl)amino)-6-(1-methyl-1H-indazol-6-yl)quinoline-3-carboxamide (19c)] showed an IC50 of 3.7 µM.

`COc1cccc(Nc2c(C(N)=O)cnc3c(C)cc(-c4cn[nH]c4)cc23)c1` [4-((3-Methoxyphenyl)amino)-8-methyl-6-(1H-pyrazol-4-yl)quinoline-3-carboxamide  (17j)] yielded an IC50 of 9 µM.

As for `COc1cccc(Nc2c(C(N)=O)cnc3c(C)cc(-c4cccc(-c5nnn[nH]5)c4)cc23)c1` [6-(3-(1H-Tetrazol-5-yl)phenyl)-4-((3-methoxyphenyl)amino)-8-methylquinoline-3-carboxamide (17m)], the IC50 turned out to be 6.7 µM.

For `COc1cccc(Nc2c(C(N)=O)cnc3c(C)cc(-c4ccc5[nH]ccc5c4)cc23)c1` [6-(1H-Indol-5-yl)-4-((3-methoxyphenyl)amino)-8-methylquinoline-3-carboxamide (17t)], the IC50 came out at 5.9 µM.

`CCOc1cccc(Nc2c(C(N)=O)cnc3c(C)cc(-c4ccc5cnn(C)c5c4)cc23)c1` [4-((3-Ethoxyphenyl)amino)-8-methyl-6-(1-methyl-1H-indazol-6-yl)quinoline-3-carboxamide (24c)]: the IC50 came to 4.2 µM.

Compound `Cc1cc(-c2cccc(-c3ncco3)c2)cc2c(NC3CCCC3)c(C(N)=O)cnc12` [4-(Cyclopentylamino)-8-methyl-6-(3-(oxazol-2-yl)phenyl)quinoline-3-carboxamide (28)] yielded an IC50 of 5.9 µM.

With `CNC(=O)c1cccc(S(=O)(=O)c2cc(C)c3ncc(C(N)=O)c(Nc4cccc(OC)c4)c3c2)c1` [4-(3-methoxyphenylamino)-8-methyl-6-(3-(methylcarbamoyl)phenylsulfonyl)quinoline-3-carboxamide (12b)], the IC50 amounted to 31 µM.

The compound `COc1cccc(Nc2c(C(N)=O)cnc3ccc(-c4ccc5cnn(C)c5c4)cc23)c1` [4-((3-Methoxyphenyl)amino)-6-(1-methyl-1H-indazol-6-yl)quinoline-3-carboxamide (19b)] yielded an IC50 of 12 µM.

For `COC(=O)c1cccc(-c2cc(C)c3ncc(C(N)=O)c(NCc4ccccc4)c3c2)c1` [Methyl 3-(4-(benzylamino)-3-carbamoyl-8-methylquinolin-6-yl)benzoate (22c)], it took 28 µM to reach half-maximal inhibition (IC50).

`COc1ccc(Nc2c(C(N)=O)cnc3c(C)cc(-c4ccc5cnn(C)c5c4)cc23)cc1C` [4-(4-Methoxy-3-methylphenylamino)-8-methyl-6-(1-methyl-1H-indazol-6-yl)quinoline-3-carboxamide, formic acid salt (24f)] came in with an IC50 of 3.7 µM.

`COc1cccc(Nc2c(C(N)=O)cnc3c(C)cc(-c4cccc(N)c4)cc23)c1` [6-(3-Aminophenyl)-4-((3-methoxyphenyl)amino)-8-methylquinoline-3-carboxamide (17f)] showed an IC50 of 23 µM.

`COc1cccc(Nc2c(C(N)=O)cnc3c(C)cc(-c4cccc(-c5ncco5)c4)cc23)c1` [4-((3-Methoxyphenyl)amino)-8-methyl-6-(3-(oxazol-2-yl)phenyl)quinoline-3-carboxamide (17p)]: the IC50 is 5.9 µM.

Consider `COC(=O)c1cccc(-c2cc(C)c3ncc(C(N)=O)c(Nc4cccnc4)c3c2)c1` [Methyl 3-(3-carbamoyl-8-methyl-4-(pyridin-3-ylamino)quinolin-6-yl)benzoate (22f)], for which the midpoint of inhibition, the IC50, lay at 26 µM.

`COC(=O)c1cccc(S(=O)(=O)c2cc(C)c3ncc(C(N)=O)c(Nc4cccc(OC)c4)c3c2)c1` [Methyl 3-(3-carbamoyl-4-(3-methoxyphenylamino)-8-methylquinolin-6-ylsulfonyl)benzoate (10a)] yielded an IC50 of 3.5 µM.
